Laboratory results: patent US20250152585A1, “PHARMACEUTICAL COMPOUND” (Duke Street Bio Limited, priority 2022, published 2025)
Where two headings read alike, the source gives them in different places.

What was measured:
[1] = molecular target: T1, N-terminally FLAG-tagged PARP2 (amino acids 1-583) (Homo sapiens, UniProt Q9UGN5); assay: PARP2 probe displacement HTRF assay; assay type: binding; conditions: binned Kd
T1 construct: N-terminally FLAG-tagged PARP2 (amino acids 1-583)
Protocol: Data analysis was performed identical as for PARP1.

[2] = molecular target: T2, full length N-terminally FLAG-tagged PARP1 (Homo sapiens, UniProt P09874); assay: PARP1 probe displacement HTRF assay; conditions: for Kd: binned Kd; for Selectivity: PARP1 over PARP2, ratio Kd (PARP2)/Kd (PARP1)
[3] = molecular target: T2, full length N-terminally FLAG-tagged PARP1; assay: PARP1 biochemical DELFIA assay (auto-PARylation); parameters: recombinant full length human N-terminally FLAG-tagged PARP1
[4] = PARP1 HTRF, PARP1 probe displacement HTRF
[5] = binned IC50, PARP1 biochemical DELFIA assay
[6] = read-out: PARP1 HTRF, probe displacement HTRF
[7] = binned IC50, biochemical auto-PARylation assay
[8] = read-out: PARP1 HTRF, PARP1 probe displacement HTRF

T1 sequence (Q9UGN5 whole entry, the tested form may be a part): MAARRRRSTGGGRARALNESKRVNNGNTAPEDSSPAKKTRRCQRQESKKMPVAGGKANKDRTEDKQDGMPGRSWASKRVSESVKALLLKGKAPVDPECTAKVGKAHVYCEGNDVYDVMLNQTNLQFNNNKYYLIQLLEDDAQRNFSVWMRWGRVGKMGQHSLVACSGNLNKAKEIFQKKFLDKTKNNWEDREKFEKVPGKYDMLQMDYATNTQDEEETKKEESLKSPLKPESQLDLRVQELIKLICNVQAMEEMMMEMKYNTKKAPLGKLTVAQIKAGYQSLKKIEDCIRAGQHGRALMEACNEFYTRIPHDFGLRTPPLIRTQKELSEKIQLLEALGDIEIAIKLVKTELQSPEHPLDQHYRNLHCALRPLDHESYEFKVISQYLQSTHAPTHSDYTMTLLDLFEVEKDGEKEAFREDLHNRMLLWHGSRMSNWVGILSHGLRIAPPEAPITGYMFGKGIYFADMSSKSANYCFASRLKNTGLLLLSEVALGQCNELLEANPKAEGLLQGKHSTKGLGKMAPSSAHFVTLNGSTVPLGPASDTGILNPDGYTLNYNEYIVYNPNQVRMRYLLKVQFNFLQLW
T2 sequence (P09874 whole entry): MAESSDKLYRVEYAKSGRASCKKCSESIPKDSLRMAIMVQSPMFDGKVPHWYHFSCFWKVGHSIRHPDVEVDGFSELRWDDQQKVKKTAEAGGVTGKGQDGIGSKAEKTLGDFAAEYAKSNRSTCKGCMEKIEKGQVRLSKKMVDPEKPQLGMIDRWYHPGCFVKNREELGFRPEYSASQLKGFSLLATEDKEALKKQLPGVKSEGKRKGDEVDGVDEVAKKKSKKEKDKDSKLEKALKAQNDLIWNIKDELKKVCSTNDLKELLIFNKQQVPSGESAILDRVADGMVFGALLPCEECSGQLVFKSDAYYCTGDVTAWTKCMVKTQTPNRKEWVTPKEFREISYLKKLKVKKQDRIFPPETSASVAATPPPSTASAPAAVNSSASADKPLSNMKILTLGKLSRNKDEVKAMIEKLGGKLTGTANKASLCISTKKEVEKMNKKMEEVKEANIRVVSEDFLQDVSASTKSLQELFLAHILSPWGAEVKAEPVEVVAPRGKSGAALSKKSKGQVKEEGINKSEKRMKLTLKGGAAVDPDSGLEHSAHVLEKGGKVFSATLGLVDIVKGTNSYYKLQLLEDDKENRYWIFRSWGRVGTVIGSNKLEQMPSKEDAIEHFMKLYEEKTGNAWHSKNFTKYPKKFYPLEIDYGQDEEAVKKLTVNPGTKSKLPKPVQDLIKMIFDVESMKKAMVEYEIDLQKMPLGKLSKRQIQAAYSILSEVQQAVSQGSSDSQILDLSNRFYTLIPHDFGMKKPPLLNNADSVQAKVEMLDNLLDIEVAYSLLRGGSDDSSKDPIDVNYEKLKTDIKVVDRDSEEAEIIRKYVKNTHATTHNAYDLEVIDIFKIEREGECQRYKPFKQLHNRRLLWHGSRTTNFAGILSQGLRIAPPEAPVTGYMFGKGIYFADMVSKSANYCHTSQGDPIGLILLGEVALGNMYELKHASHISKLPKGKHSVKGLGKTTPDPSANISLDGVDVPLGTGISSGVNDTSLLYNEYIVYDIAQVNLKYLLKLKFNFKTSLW

| SMILES | Kd ([1]; PARP2 probe displacement HTRF) [nM] | Kd [2, 4] [nM] | Selectivity ([2]; probe displacement HTRF) | IC50 [3, 5] [nM] | Kd ([1]; probe displacement HTRF) [nM] | Kd [2, 6] [nM] | IC50 [3, 7] [nM] | Kd [2, 8] [nM] |
| --- | --- | --- | --- | --- | --- | --- | --- | --- |
| CNC(=O)c1ccc(N2CC(N3CCC(Cc4nc5ccccc5c(=O)[nH]4)CC3)C2)cn1 [Compound 48] | 100 to 1000 | < 10 | +++ (+++ indicate a value of at least 100) | < 10 |  |  |  |  |
| CNC(=O)c1cc(C)c(N2CCC(N3CCC(c4nc5ccccc5c(=O)[nH]4)C3)CC2)c(C)n1 (single isomer, unassigned) [Compound 224a] |  |  | − (− indicates a value of less than 10) |  | 1000 to 10000 | 1000 to 10000 | 100 to 1000 |  |
| O=c1[nH]c(C2CCN(C3CCN(c4nccs4)CC3)C2)cc2ccccc12 (racemic) [Compound 254rac] |  |  | + (+ indicates a value of 10 to less than 50) |  | 1000 to 10000 | 100 to 1000 | 10 to 100 |  |
| CNS(=O)(=O)c1ccc(N2CCC(N3CCC(c4cc5ccccc5c(=O)[nH]4)C3)CC2)cc1 (single isomer, unassigned) [Compound 346a] |  |  | +++ (+++ indicate a value of at least 100) |  | 1000 to 10000 | < 10 | < 10 |  |
| CCc1ccc(C2CCCN(C3CCN(c4ccc(C(=O)NC)nc4)CC3)C2)[nH]c1=O (single isomer, unassigned) [Compound 53b, 5-{4-[3-(5-ethyl-6-oxo-1H-pyridin-2-yl)piperidin-1-yl]piperidin-1-yl}-N-methylpyridine-2-carboxamide] | > 10000 | 100 to 1000 | + (+ indicates a value of 10 to less than 50) | 100 to 1000 |  |  |  |  |
| O=C(NCC(F)(F)F)c1ccc(N2CCC(N3CCC(c4nc5ccccc5c(=O)[nH]4)C3)CC2)cn1 (single isomer, unassigned) [Compound 130b] | 100 to 1000 |  | +++ (+++ indicate a value of at least 100) | < 10 |  |  |  | < 10 |
| CNC(=O)c1ccc(N2CCC(N3CCC(c4nc5c(F)cccc5c(=O)[nH]4)C3)CC2)cn1 (single isomer, unassigned) [Compound 121b] | 100 to 1000 |  | +++ (+++ indicate a value of at least 100) | < 10 |  |  |  | < 10 |
| CNC(=O)c1ccc(N2CCC(N3CCC(c4cc5[nH]nc(C(F)(F)F)c5c(=O)[nH]4)C3)CC2)c(F)n1 (single isomer, unassigned) [Compound 280a] |  |  | ++ (++ indicates a value of 50 to less than 100) |  | 1000 to 10000 | 10 to 100 | 10 to 100 |  |
| CNC(=O)c1ccc(N2CCC(N3CCC(c4ncc(C(F)(F)F)c(=O)[nH]4)C3)CC2)cn1 (single isomer, unassigned) [Compound 56a] | > 10000 |  | ++ (++ indicates a value of 50 to less than 100) | 100 to 1000 |  |  |  | 10 to 100 |
| CNC(=O)c1ccc(N2CCC(N3CCC(c4[nH]c(=O)c5ccccc5c4Cl)C3)CC2)cn1 (single isomer, unassigned) [Compound 219a] | 10 to 100 |  | ++ (++ indicates a value of 50 to less than 100) | < 10 |  |  |  | < 10 |
| O=C(NCC(F)(F)F)c1ccc(N2CCC(N3CCC(c4nc5ccccc5c(=O)[nH]4)C3)CC2)cn1 (single isomer, unassigned) [Compound 130a] | 100 to 1000 |  | + (+ indicates a value of 10 to less than 50) | < 10 |  |  |  | < 10 |
| CNC(=O)c1ccc(N2CCC(N3CCC(c4[nH]c(=O)c5c(F)cccc5c4F)C3)CC2)c(F)n1 (single isomer, unassigned) [Compound 402b] |  |  | +++ (+++ indicate a value of at least 100) |  | 10 to 100 | < 10 | < 10 |  |
| CNC(=O)c1ccc(N2CCC(N3CCC(c4cc5c(c(C(F)(F)F)nn5C)c(=O)[nH]4)C3)CC2)cn1 (racemic) [Compound 244rac] |  |  | − (− indicates a value of less than 10) |  | < 10 | < 10 | < 10 |  |
| O=c1[nH]c(C2CCN(C3CCN(c4ccc(F)cc4F)CC3)C2)nc2ccccc12 (single isomer, unassigned) [Compound 107b] | 100 to 1000 |  | − (− indicates a value of less than 10) | 100 to 1000 |  |  |  | 100 to 1000 |
| CNC(=O)c1ccc(N2CCC(N3CC4CC(c5nc6ccccc6c(=O)[nH]5)(C4)C3)CC2)cn1 [Compound 168] | > 10000 | < 10 | +++ (+++ indicate a value of at least 100) | < 10 |  |  |  |  |
| CNC(=O)c1ccc(N2CCC(CN3CCCC(c4nc5ccccc5c(=O)[nH]4)C3)CC2)cn1 (single isomer, unassigned) [Compound 9b] | 100 to 1000 |  | − (− indicates a value of less than 10) | 10 to 100 |  |  |  | 10 to 100 |
| CCc1ccc(C2CCN(C3CCN(c4ccc(C(=O)NCCF)nc4F)CC3)C2)[nH]c1=O (single isomer, unassigned) [Compound 322a] |  |  | +++ (+++ indicate a value of at least 100) |  | > 10000 | < 10 | < 10 |  |
| CC(=O)Nc1ccc(N2CCC(N3CCC(c4nc5ccccc5c(=O)[nH]4)C3)CC2)cn1 (single isomer, unassigned) [Compound 220a] |  |  | − (− indicates a value of less than 10) |  | 1000 to 10000 | 100 to 1000 | 100 to 1000 |  |
| CNC(=O)c1ccc(N2CCC(N3CCC(c4cc5ccc(F)cc5c(=O)[nH]4)C3)CC2)cn1 (single isomer, unassigned) [Compound 154a, 5-(4-(3-(7-fluoro-1-oxo-1,2-dihydroisoquinolin-3-yl)pyrrolidin-1-yl)piperidin-1-yl)-N-methylpicolinamide] | 100 to 1000 | < 10 | +++ (+++ indicate a value of at least 100) | < 10 |  |  |  |  |
| CCc1ccc(C2CCN(CC3CCN(c4ccc(C(=O)NC)nc4)CC3)CC2)[nH]c1=O [Compound 47] | > 10000 | 100 to 1000 | − (− indicates a value of less than 10) | 100 to 1000 |  |  |  |  |
| CNC(=O)c1ccc(N2CCC(N3CCC(c4cc5[nH]nc(C(F)(F)F)c5c(=O)[nH]4)C3)CC2)cn1 (single isomer, unassigned) [Compound 194b, N-methyl-5-(4-(3-(4-oxo-3-(trifluoromethyl)-4,5-dihydro-1H-pyrazolo[4,3-c]pyridin-6-yl)pyrrolidin-1-yl)piperidin-1-yl)picolinamide] | 10 to 100 | < 10 | + (+ indicates a value of 10 to less than 50) | < 10 |  |  |  |  |
| CNC(=O)c1ccc(N2CCC(N3CCC(c4cc5ncc(Cl)cc5c(=O)[nH]4)C3)CC2)c(F)n1 (single isomer, unassigned) [Compound 344a] |  |  | +++ (+++ indicate a value of at least 100) |  | > 10000 | < 10 | < 10 |  |
| CNC(=O)c1ccc(N2CCC(N3CCC(c4cc5ncc(F)cc5c(=O)[nH]4)C3)CC2)c(F)n1 (single isomer, unassigned) [Compound 324b] |  |  | +++ (+++ indicate a value of at least 100) |  | 100 to 1000 | < 10 | < 10 |  |
| CNC(=O)c1ccc(N2CCC(N3CCC(c4cc5ccccc5c(=O)[nH]4)C3)CC2)cn1 (single isomer, unassigned) [Compound 91b] | 100 to 1000 |  | +++ (+++ indicate a value of at least 100) | < 10 |  |  |  | < 10 |
| CNC(=O)c1ccc(N2CCC(N3CCC(c4[nH]c(=O)c5cc(F)ccc5c4F)C3)CC2)cn1 (single isomer, unassigned) [Compound 370a] |  |  | +++ (+++ indicate a value of at least 100) |  | 100 to 1000 | < 10 | < 10 |  |
| CCc1ccc(C2CCN(C3CCN(c4cnc(C(=O)NC)cc4C)CC3)C2)[nH]c1=O (single isomer, unassigned) [Compound 217b] | 100 to 1000 |  | ++ (++ indicates a value of 50 to less than 100) | < 10 |  |  |  | < 10 |
